Changes are numbered by the printed parent chain.
Assays:
PKG-1α [1] = target: T1, PKG-1α (Homo sapiens, UniProt Q13976); test: PKG activity in transfected PASMC; assay type: cell-based, lamb; parameters: an expression plasmid containing a full length WT-PKG-1α cDNA; expressed in transfected cells; host or cells: primary pulmonary artery smooth muscle cells (PASMC) from 4-week old lambs; conditions: PASMC transfected with WT-PKG-1α; SIN-1 500 μM, 48 h
T1 sequence (Q13976 2-671): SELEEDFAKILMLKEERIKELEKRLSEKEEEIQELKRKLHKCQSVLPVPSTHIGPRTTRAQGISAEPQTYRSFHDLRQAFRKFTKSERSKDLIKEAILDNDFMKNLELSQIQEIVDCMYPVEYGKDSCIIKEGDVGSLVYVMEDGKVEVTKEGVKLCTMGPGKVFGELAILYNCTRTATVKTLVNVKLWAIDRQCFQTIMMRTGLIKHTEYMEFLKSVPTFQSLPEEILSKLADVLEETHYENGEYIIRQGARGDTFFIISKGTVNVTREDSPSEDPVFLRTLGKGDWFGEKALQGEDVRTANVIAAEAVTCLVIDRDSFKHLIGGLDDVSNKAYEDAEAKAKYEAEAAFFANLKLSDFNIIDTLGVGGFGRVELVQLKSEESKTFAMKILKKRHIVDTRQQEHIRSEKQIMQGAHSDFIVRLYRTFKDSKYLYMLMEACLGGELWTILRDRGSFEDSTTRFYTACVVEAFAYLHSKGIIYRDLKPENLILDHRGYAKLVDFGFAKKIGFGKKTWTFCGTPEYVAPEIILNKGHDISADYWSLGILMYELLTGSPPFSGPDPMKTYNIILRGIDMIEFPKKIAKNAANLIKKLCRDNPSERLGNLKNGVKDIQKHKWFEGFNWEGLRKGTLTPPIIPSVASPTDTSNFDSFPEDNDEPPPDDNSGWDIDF
Method: Therefore, the effect of these events were investigated in PASMC transiently transfected with expression plasmids containing WT- and Y247F-PKG-1α. The effect of nitration on pulmonary arterial smooth muscle cell (PASMC) growth and metabolism was determined. PASMC were transiently transfected with expression plasmids containing WT-PKG-1α, Y247F-PKG-1α or pDEST40 (as a control) for 20 h. Cells were then exposed or not to SIN-1 (500 μM, 48 h) and the effect on PKG protein levels (FIG. 2A) and activity determined (FIG. 2B).
Total PKG activity was determined using a non-radioactive immunoassay in cell lysates, according to the manufacturer's directions. Briefly, protein samples were diluted in kinase reaction buffer containing Mg^2+ and ATP (125 μM) in the presence or absence of 8-Br cGMP (10 μM) and incubated in a 96 well plate pre-coated with a PKG substrate containing threonine residues phosphorylated by PKG.
(§1) After incubation for 30 min at 30° C. to allow the phosphorylation of the bound substrate, an HRP conjugated anti-phosphothreonine specific antibody was added to convert a chromogenic substrate to a colorimetric substrate that was subsequently read spectrophotometrically at 450 nm. The change in absorbance reflected the relative activity of PKG in the sample. […] The kinetic constants were determined using nonlinear regression (curve fit) analysis (GraphPad Prism Software Inc.).

PKG-1α [2] = test: PKG activity in transfected HEK-293T cells; assay type: cell-based, human; conditions: HEK-293T; SIN-1 500 μM, 30 min
Method: (§2) To determine the role of tyrosine 247 and tyrosine 425 in mediating the nitration dependent inhibition of PKG-1α kinase activity, Y247F- and Y425F-PKG-1α mutants were generated and expressed in HEK-293T cells. HEK-293T cells were transiently transfected with expression plasmids containing WT-, Y247F-, or Y425F-PKG-1α for 48 h. […] Protein extracts were immunoprecipitated using an antibody raised against PKG-1α and the level of nitrated PKG-1α determined by probing the membranes with an antiserum raised against 3-NT. The blots were then stripped and re-probed for PKG-1α to normalize for the efficiency of the immunoprecipitation.
(§3) Total PKG activity was determined using a non-radioactive immunoassay in cell lysates, according to the manufacturer's directions. […]
as §1

PKG-1α [3] = target: T2, PKG-1α (Homo sapiens, UniProt Q13976, Y425F); test: PKG activity in transfected HEK-293T cells; assay type: cell-based; conditions: HEK-293T expressing Y425F-PKG-1α; SIN-1 500 μM, 30 min
T2 construct: an expression plasmid containing a full length WT-PKG-1α cDNA; expressed in transfected cells; host or cells: HEK-293T
T2 sequence (Q13976 2-671 Y425F): T1 sequence (Q13976 2-671) with Y424F
Method: as §2, §3, §1

cGMP dependent increase in PKG activity (PKG-1α [1]): attenuated | cGMP dependent PKG activity (PKG-1α [3]): attenuated
Substance: 3-morpholinosydnonimine N-ethylcarbamide [SIN-1]
cGMP-independent PKG activity (PKG-1α [2]): did not alter
